In patent US20260015358A1, “BICYCLIC DERIVATIVES, COMPOSITIONS AND USES THEREOF” (Danatlas Pharmaceuticals Co., Ltd., priority 2023, published 2026):
pIC50: −log10 of the molar value.

Key:
[1] = biological target: T1, WRN [UniPro: Q14191 (WRN_HUMAN), N500-C946] (Homo sapiens (Human), UniProt Q14191); assay: WRN ATPase assay (ADP-Glo); format: biochemical; details: WRN enzymatic activity assay
Description: WRN ATPase assay was initiated to evaluate potential inhibitory effect of compounds for ATP hydrolysis activity of WRN protein. WRN [UniPro: Q14191 (WRN_HUMAN), N500-C946] was expressed and purified in insect system and stored at −80° C. in aliquots. […] ADP quantity produced from ATP hydrolysis by WRN catalytic reaction was measured using a commercially available ADP-Glo Assay (ADP-Glo™ Kinase Assay from Promega, 10000 assays, #V9102). […] Compounds dissolved in DMSO (Sigma, D8418) were plated into a 96-well intermediate plate (BioFil, VWP-032-096) for 3-fold serial titration for 10 points using DMSO, and well-to-well transfer the titrated compounds into another 96-well intermediate plate including assay buffer in advance. Shake the 96-well intermediate plate at 600 rpm for 10 min to fully mix. Specifically, a 4× working mixture of WRN was diluted to a concentration of 8 nM in assay buffer. […] After centrifuging at 1000 rpm and shaking at 500 rpm, the assay plate was pre-incubated for 30 min. Then, 5 μL 2×FORKF DNA and ATP working mixture was dispensed into assay plate. Plate was sealed, centrifuged and incubated for an additional 40 min. at 37° C. The reaction was stopped with the addition of 10 μL of the first ADP-Glo reagent and incubated for 40 min. to remove the excess amount of ATP. Afterwards, 20 μL of ATP detection reagent was added and incubated for 30 min. before reading. Luminescence output was recorded using BMG CLARIO star plus reader. Each concentration of compound was tested in duplicates in the assay plate. Average luminescence signal of high control (Wells with 1% DMSO) was calculated as High Control (HC). Average luminescence signal of low control (Wells with no WRN protein) was calculated as Low control (LC).
(§1) IC50 values were determined by fitting the data to the standard 4 parameters with Hill Slope using GraphPad Prism software.

[2] = biological target: T1, WRN [UniPro: Q14191 (WRN_HUMAN), N500-C946]; assay: WRN unwinding assay (FORKF DNA, fluorescence); format: biochemical; details: Table 14
Description: WRN unwinding assay was initiated to evaluate potential inhibitory effect of compounds for WEN helicase activity. WRN [UniPro: Q14191 (WRN_HUMAN), N500-C946] was expressed and purified in insect system and stored at −80° C. in aliquots. […] Compounds dissolved in DMSO (Sigma, D8418) were plated into a 96-well intermediate plate (BioFil, VWP-032-096) for 3-fold serial titration for 10 points using DMSO, and well-to-well transfer the titrated compounds into another 96-well intermediate plate including assay buffer in advance. Shake the 96-well intermediate plate at 600 rpm for 10 min. to fully mix. Specifically, a 3× working mixture of WRN was diluted to a concentration of 60 nM in assay buffer. […] After centrifuging at 1000 rpm and shaking at 500 rpm, the assay plate was pre-incubated for 30 min. Then, […] 3×FORKF DNA and ATP working mixture was dispensed into assay plate. Plate was sealed, centrifuged and incubated for an additional 40 min. at 25° C. […] Each concentration of compound was tested in duplicates in the assay plate. Average fluorescence signal of high control (Wells with 1% DMSO) was calculated as High Control (HC). Average fluorescence signal of low control (Wells with no WRN protein) was calculated as Low control (LC).
as §1

T1 sequence (Q14191 500-946): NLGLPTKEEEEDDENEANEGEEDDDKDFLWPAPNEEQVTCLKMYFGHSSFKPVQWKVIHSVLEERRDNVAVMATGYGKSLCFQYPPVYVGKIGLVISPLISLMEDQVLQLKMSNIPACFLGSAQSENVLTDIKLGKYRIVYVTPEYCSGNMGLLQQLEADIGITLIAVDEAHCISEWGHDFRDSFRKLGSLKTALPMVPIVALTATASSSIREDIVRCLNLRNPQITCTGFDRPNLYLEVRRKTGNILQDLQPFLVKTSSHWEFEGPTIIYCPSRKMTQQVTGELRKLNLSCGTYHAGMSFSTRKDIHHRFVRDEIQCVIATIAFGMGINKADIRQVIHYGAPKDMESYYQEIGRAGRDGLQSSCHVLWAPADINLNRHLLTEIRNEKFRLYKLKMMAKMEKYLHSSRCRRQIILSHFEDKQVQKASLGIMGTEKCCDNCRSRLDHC

CCc1c(N2CCN(C(=O)CNC(=O)c3cnn4cccc4c3O)CC2)c(=O)n2nc(C3=CCOCC3)nc2n1CC(=O)Nc1ccc(C(F)(F)F)cc1Cl [Example 109, N-(2-(4-(4-(2-((2-Chloro-4-(trifluoromethyl)phenyl)amino)-2-oxoethyl)-2-(3,6-dihydro-2H-pyran-4-yl)-5-ethyl-7-oxo-4,7-dihydro-[1,2,4]triazolo[1,5-a]pyrimidin-6-yl)piperazin-1-yl)-2-oxoethyl)-4-hydroxypyrrolo[1,2-b]pyridazine-3-carboxamide]
pIC50 [1]: > 7.00 | pIC50 [2]: > 7.00

CCc1c(N2CCN(C(=O)CNC(=O)c3cccc(N)c3)CC2)c(=O)n2nc(C3=CCOCC3)nc2n1CC(=O)Nc1ccc(C(F)(F)F)cc1Cl [Example 288, 3-Amino-N-(2-(4-(4-(2-((2-chloro-4-(trifluoromethyl)phenyl)amino)-2-oxoethyl)-2-(3,6-dihydro-2H-pyran-4-yl)-5-ethyl-7-oxo-4,7-dihydro-[1,2,4]triazolo[1,5-a]pyrimidin-6-yl)piperazin-1-yl)-2-oxoethyl)benzamide]
pIC50 [1]: > 7.00 | pIC50 [2]: > 7.00

CCc1c(N2CCN(C(=O)C(=O)Nc3cncs3)CC2)c(=O)n2nc(C3=CCOCC3)nc2n1CC(=O)Nc1ccc(C(F)(F)F)cc1Cl [Example 334, 2-(4-(4-(2-((2-Chloro-4-(trifluoromethyl)phenyl)amino)-2-oxoethyl)-2-(3,6-dihydro-2H-pyran-4-yl)-5-ethyl-7-oxo-4,7-dihydro-[1,2,4]triazolo[1,5-a]pyrimidin-6-yl)piperazin-1-yl)-2-oxo-N-(thiazol-5-yl)acetamide]
pIC50 [1]: > 7.00 | pIC50 [2]: > 7.00

CCc1c(N2CCN(C(=O)CNC(=O)c3c(F)cccc3F)CC2)c(=O)n2nc(C3=CCOCC3)nc2n1CC(=O)Nc1ccc(C(F)(F)F)cc1Cl [Example 124, N-(2-(4-(4-(2-((2-Chloro-4-(trifluoromethyl)phenyl)amino)-2-oxoethyl)-2-(3,6-dihydro-2H-pyran-4-yl)-5-ethyl-7-oxo-4,7-dihydro-[1,2,4]triazolo[1,5-a]pyrimidin-6-yl)piperazin-1-yl)-2-oxoethyl)-2,6-difluorobenzamide]
pIC50 [1]: > 7.00 | pIC50 [2]: > 7.00

CCc1c(N2CCN(C(=O)CNC(=O)c3ccccc3)CC2)c(=O)n2nc(C3CC3)nc2n1CC(=O)Nc1ccc(C(F)(F)F)cc1Cl [Example 238, N-(2-(4-(4-(2-((2-Chloro-4-(trifluoromethyl)phenyl)amino)-2-oxoethyl)-2-cyclopropyl-5-ethyl-7-oxo-4,7-dihydro-[1,2,4]triazolo[1,5-a]pyrimidin-6-yl)piperazin-1-yl)-2-oxoethyl)benzamide]
pIC50 [1]: 6.00 to 7.00 | pIC50 [2]: 6.00 to 7.00

CCc1c(N2CCN(C(=O)C(=O)NC)CC2)c(=O)n2nc(C3=CCOCC3)nc2n1CC(=O)Nc1ccc(C(F)(F)F)cc1Cl [Example 329, 2-(4-(4-(2-((2-Chloro-4-(trifluoromethyl)phenyl)amino)-2-oxoethyl)-2-(3,6-dihydro-2H-pyran-4-yl)-5-ethyl-7-oxo-4,7-dihydro-[1,2,4]triazolo[1,5-a]pyrimidin-6-yl)piperazin-1-yl)-N-methyl-2-oxoacetamide]
pIC50 [1]: 6.00 to 7.00 | pIC50 [2]: 6.00 to 7.00

CCc1c(N2CCN(C(=O)C(=O)Nc3cncs3)CC2)c(=O)n2nc(C3=CCOCC3)nc2n1CC(=O)Nc1ccc(C(F)(F)F)cc1F [Example 349, 2-(4-(2-(3,6-Dihydro-2H-pyran-4-yl)-5-ethyl-4-(2-((2-fluoro-4-(trifluoromethyl)phenyl)amino)-2-oxoethyl)-7-oxo-4,7-dihydro-[1,2,4]triazolo[1,5-a]pyrimidin-6-yl)piperazin-1-yl)-2-oxo-N-(thiazol-5-yl)acetamide]
pIC50 [1]: > 7.00 | pIC50 [2]: > 7.00

CCc1c(N2CCN(C(=O)CNC(=O)Nc3ccccc3Cl)CC2)c(=O)n2nc(C3=CCOCC3)nc2n1CC(=O)Nc1ccc(C(F)(F)F)cc1Cl [Example 181, N-(2-Chloro-4-(trifluoromethyl)phenyl)-2-(6-(4-(((2-chlorophenyl)carbamoyl)glycyl)piperazin-1-yl)-2-(3,6-dihydro-2H-pyran-4-yl)-5-ethyl-7-oxo-[1,2,4]triazolo[1,5-a]pyrimidin-4(7H)-yl)acetamide]
pIC50 [1]: > 7.00 | pIC50 [2]: > 7.00

CCc1c(N2CCN(C(=O)CNC(=O)Nc3ccccc3)CC2)c(=O)n2nc(C3=CCOCC3)nc2n1CC(=O)Nc1ccc(C(F)(F)F)cc1Cl [Example 178, N-(2-Chloro-4-(trifluoromethyl)phenyl)-2-(2-(3,6-dihydro-2H-pyran-4-yl)-5-ethyl-7-oxo-6-(4-((phenylcarbamoyl)glycyl)piperazin-1-yl)-[1,2,4]triazolo[1,5-a]pyrimidin-4 (7H)-yl)acetamide]
pIC50 [1]: > 7.00 | pIC50 [2]: > 7.00

CCc1c(N2CCN(C(=O)CNC(=O)c3cnc(C)s3)CC2)c(=O)n2nc(C3=CCOCC3)nc2n1CC(=O)Nc1ccc(C(F)(F)F)cc1Cl [Example 131, N-(2-(4-(4-(2-((2-Chloro-4-(trifluoromethyl)phenyl)amino)-2-oxoethyl)-2-(3,6-dihydro-2H-pyran-4-yl)-5-ethyl-7-oxo-4,7-dihydro-[1,2,4]triazolo[1,5-a]pyrimidin-6-yl)piperazin-1-yl)-2-oxoethyl)-2-methylthiazole-5-carboxamide]
pIC50 [1]: 6.00 to 7.00 | pIC50 [2]: > 7.00

CCNC(=O)N1CCN(c2c(CC)n(CC(=O)Nc3ccc(C(F)(F)F)cc3Cl)c3nc(C4=CCOCC4)nn3c2=O)CC1 [Example 15, 4-(4-(2-((2-Chloro-4-(trifluoromethyl)phenyl)amino)-2-oxoethyl)-2-(3,6-dihydro-2H-pyran-4-yl)-5-ethyl-7-oxo-4,7-dihydro-[1,2,4]triazolo[1,5-a]pyrimidin-6-yl)-N-ethylpiperazine-1-carboxamide]
pIC50 [2]: 6.00 to 7.00

CCc1c(N2CCN(C(=O)CNC(=O)CN3CCCC3)CC2)c(=O)n2nc(C3=CCOCC3)nc2n1CC(=O)Nc1ccc(C(F)(F)F)cc1Cl [Example 339, N-(2-Chloro-4-(trifluoromethyl)phenyl)-2-(2-(3,6-dihydro-2H-pyran-4-yl)-5-ethyl-7-oxo-6-(4-((2-(pyrrolidin-1-yl)acetyl)glycyl)piperazin-1-yl)-[1,2,4]triazolo[1,5-a]pyrimidin-4(7H)-yl)acetamide]
pIC50 [2]: 6.00 to 7.00

CCNS(=O)(=O)N1CCN(c2c(CC)n(CC(=O)Nc3ccc(C(F)(F)F)cc3Cl)c3nc(C4=CCOCC4)nn3c2=O)CC1 [Example 33, N-(2-Chloro-4-(trifluoromethyl)phenyl)-2-(2-(3,6-dihydro-2H-pyran-4-yl)-5-ethyl-6-(4-(N-ethylsulfamoyl)piperazin-1-yl)-7-oxo-[1,2,4]triazolo[1,5-a]pyrimidin-4(7H)-yl)acetamide]
pIC50 [2]: 6.00 to 7.00

CCOC(=O)N1CCN(c2c(CC)n(CC(=O)Nc3ccc(C(F)(F)F)cc3Cl)c3nc(C4=CCOCC4)nn3c2=O)CC1 [Example 40, Ethyl 4-(4-(2-((2-chloro-4-(trifluoromethyl)phenyl)amino)-2-oxoethyl)-2-(3,6-dihydro-2H-pyran-4-yl)-5-ethyl-7-oxo-4,7-dihydro-[1,2,4]triazolo[1,5-a]pyrimidin-6-yl)piperazine-1-carboxylate]
pIC50 [2]: < 6.00

CCc1c(N2CCN(C(=O)NCC3CC3)CC2)c(=O)n2nc(C3=CCOCC3)nc2n1CC(=O)Nc1ccc(C(F)(F)F)cc1Cl [Example 24, 4-(4-(2-((2-Chloro-4-(trifluoromethyl)phenyl)amino)-2-oxoethyl)-2-(3,6-dihydro-2H-pyran-4-yl)-5-ethyl-7-oxo-4,7-dihydro-[1,2,4]triazolo[1,5-a]pyrimidin-6-yl)-N-(cyclopropylmethyl)piperazine-1-carboxamide]
pIC50 [2]: 6.00 to 7.00

CCc1c(N2CCN(/C(=N\O)c3ncccc3F)CC2)c(=O)n2nc(C3=CCOCC3)nc2n1CC(=O)Nc1ccc(C(F)(F)F)cc1Cl [Example 21, (Z)—N-(2-Chloro-4-(trifluoromethyl)phenyl)-2-(2-(3,6-dihydro-2H-pyran-4-yl)-5-ethyl-6-(4-((3-fluoropyridin-2-yl) (hydroxyimino)methyl)piperazin-1-yl)-7-oxo-[1,2,4]triazolo[1,5-a]pyrimidin-4(7H)-yl)acetamide]
pIC50 [2]: < 6.00
